Results taken from patent publication US20220280594A1, “APPLICATION OF POLYPEPTIDE OR DERIVATIVE THEREOF” (CHENGDU HUITAI BIOMEDICINE CO., LTD., priority 2019, published 2022).
Ends that are not written are not given here. PEG = not defined here

What was measured:
Type in all cases: cell-based
[1] = test system: human pancreatic cancer cells (PANC-1); experiment: transwell invasion assay, PANC-1 cells; settings: PANC-1 transwell invasion, 10 μM, 24 hours; control group 727 ± 68
Procedure, shortened: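 Serum-free PANC-1 cells were seeded in matrigel-coated upper chambers with complete medium below. After 4-5 hours at 37° C., peptide was added at 10 μM final. Following 24 hours, invaded cells on the lower membrane surface were fixed, crystal violet-stained, imaged and counted against untreated controls.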

[2] = test system: human thyroid cancer cells (FRO); experiment: scratch assay, migration of FRO cells; settings: 10 μM, 48 hours, control group 60.34 ± 8.32
Procedure, shortened: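 FRO monolayers were scratched, washed, and cultured 48 h in 2% FBS medium with polypeptide derivatives at 10 μM or PBS control, three wells per group. Migration rate (%) = (original − current scratch width)/original width × 100, measured from images.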

[3] = test system: human pancreatic cancer cells (PANC-1); experiment: transwell migration assay, PANC-1 cells; settings: PANC-1 transwell migration, 10 μM, 24 hours; control group 360 ± 60
Procedure, shortened: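 Serum-free PANC-1 cells placed in the upper transwell chamber with complete medium below; after 4-5 h, peptide added to the upper chamber at a final 10 μM. Migration ran 24 h at 37 °C; cells on the membrane underside were methanol-fixed, crystal violet-stained and counted by microscopy.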

[4] = test system: human liver adenocarcinoma cells (SK-HEP-1); experiment: transwell invasion assay, SK-HEP-1 cells; settings: SK-HEP-1 transwell invasion, 10 μM, 24 hours; control group 767 ± 91
Procedure, shortened: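 Serum-free SK-HEP-1 cells were seeded in matrigel-coated upper chambers over complete medium. After 4-5 h, peptide was added to the upper chamber at 10 μM final. Following 24 h at 37° C., invaded cells were fixed, crystal violet-stained, imaged and counted.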

[5] = test system: human breast cancer cells (MDA-MB-453); experiment: scratch assay, migration of MDA-MB-453 cells; settings: MDA-MB-453, 10 μM, 48 hours; control group 32.42 ± 2.04
Procedure, shortened: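 Confluent MDA-MB-453 monolayers were scratched, then treated with peptide at 10 μM in 2% FBS medium for 48 h, with a PBS control and triplicate wells. Migration rate (%) was taken as (original − current scratch width)/original width ×100 from images.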

[6] = test system: human pancreatic cancer cells (PANC-1); experiment: scratch assay, migration of PANC-1 cells; settings: PANC-1, 10 μM, 48 hours; control group 66.65 ± 3.37
Procedure, shortened: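 PANC-1 monolayers were scratched, then cultured for 48 h with 10 μM test compound in 2% FBS medium, in three parallel wells per group against a PBS control. Migration rate (%) was calculated as (original minus current scratch width) / original width × 100, from imaged wells.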

[7] = test system: human oral epidermoid carcinoma KB cells; experiment: scratch assay, migration of KB cells; settings: 10 μM, 48 hours, control group 54.03 ± 4.21
Procedure, shortened: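 Monolayers of KB cells were scratched, washed with PBS, then cultured 48 hours in 2% FBS medium containing test polypeptide (10 μM) or PBS control, in triplicate wells. From images, migration rate (%) = (original − current scratch width)/original width × 100.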

[8] = test system: human liver adenocarcinoma cells (SK-HEP-1); experiment: transwell migration assay, SK-HEP-1 cells; settings: SK-HEP-1 transwell migration, 10 μM, 24 hours; control group 1 782 ± 108, control group 2 768 ± 86
Procedure, shortened: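 SK-HEP-1 cells in serum-free medium seeded in upper transwell chamber (2-3×10^5 cells/mL) over complete medium; after 4-5 h at 37 °C, 5% CO2, peptide added at 10 μM final in upper chamber. After 24 h, migrated cells fixed in methanol, crystal-violet stained, imaged and counted.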

Row | Substance | Number of cells (mean ± SD, P), invaded cells [1] | Migration rate (%) (mean ± SD, P) [2] | Number of cells (mean ± SD, P), migrated cells [3] | Number of cells (mean ± SD, P), invaded cells [4] | Migration rate (%) (mean ± SD, P) [5] | Migration rate (%) (mean ± SD, P) [6] | Migration rate (%) (mean ± SD, P) [7] | Number of cells (mean ± SD, P), migrated cells [8]
1 | N24: SEQ ID NO: 1 with substitution A7R, deletion of positions 1-2 and of position 18 (VRFLRKENVTQDAED) | 226 ± 18,**** | 16.54 ± 3.19,** % | 239 ± 24,* | 332 ± 30,*** | 15.84 ± 4.44,* % | 13.99 ± 7.57,*** % | 24.03 ± 4.21,* % | 265 ± 24,****
2 | N41: SEQ ID NO: 1 with addition of two amino acids at the amino terminal, deletion of position 18, PEG at the carboxyl terminal (FRYRVRFLAKENVTQDAED-{PEG}; reading uncertain) | 288 ± 38,**** | 40.10 ± 2.73,* % | 248 ± 22,* | 58 ± 12,**** | 11.5 ± 3.23,*** % | 14.44 ± 7.40,*** % | 20.01 ± 2.07,** % | 280 ± 24,****
3 | N47: SEQ ID NO: 1 with N18R, deletion of positions 1-2, one amino acid added and PEG at the carboxyl terminal (VRFLAKENVTQDAEDRC-{PEG}; reading uncertain) | 133 ± 29,**** | 16.47 ± 3.83,** % | 135 ± 10,*** | 85 ± 16,**** | 14.66 ± 2.51,*** % | 36.05 ± 5.62,** % | 8.82 ± 1.89,*** % | 179 ± 17,****
4 | N25: SEQ ID NO: 1 with substitution N18R and addition of two amino acids at the carboxyl terminal (YRVRFLAKENVTQDAEDRCT) | 247 ± 17,**** | 14.31 ± 2.47,*** % | 217 ± 31,** | 411 ± 30,*** | 21.05 ± 2.53,* % | 25.36 ± 7.32,*** % | 18.32 ± 2.63,** % | 58 ± 15,****
5 | N17: SEQ ID NO: 1 with addition of two amino acids to the carboxyl terminal (YRVRFLAKENVTQDAEDNCT) | 95 ± 6,**** | 11.38 ± 2.27,*** % | 244 ± 14,* | 165 ± 28,**** | 4.51 ± 1.96,*** % | 15.47 ± 5.29,*** % | 14.35 ± 2.52,** % | 50 ± 5,****
6 | N43: SEQ ID NO: 1 with addition of one amino acid at the amino terminal, deletion of position 18, PEG at the carboxyl terminal (RYRVRFLAKENVTQDAED-{PEG}; reading uncertain) | 251 ± 10,**** | 19.78 ± 4.60,** % | 157 ± 15,*** | 107 ± 16,**** | 10.38 ± 6.04,** % | 18.87 ± 6.90,*** % | 11.22 ± 1.74,*** % | 157 ± 29,****
7 | N15: SEQ ID NO: 1 with substitution N18R and addition of one amino acid to the carboxyl terminal (YRVRFLAKENVTQDAEDRC) | 104 ± 9,**** | 8.84 ± 2.27,*** % | 220 ± 18,** | 418 ± 36,** | 8.95 ± 2.93,*** % | 14.85 ± 5.08,*** % | 40.62 ± 3.53,* % | 131 ± 10,****
8 | N5: SEQ ID NO: 1 with addition of one amino acid at the carboxyl terminal and deletion of positions 1-3 (RFLAKENVTQDAEDNC) | 109 ± 7,**** | 4.71 ± 1.90,*** % | 234 ± 27,* | 353 ± 52,*** | 14.74 ± 3.23,** % | 21.63 ± 6.16,*** % | 9.62 ± 3.84,*** % | 167 ± 12,****
9 | N7: SEQ ID NO: 1 with addition of one amino acid at the carboxyl terminal and substitution A15R (YRVRFLAKENVTQDREDNC) | 70 ± 17,**** | 5.73 ± 2.04,*** % | 132 ± 15,*** | 463 ± 52,** | 12.64 ± 2.73,** % | 37.07 ± 7.83,** % | 11.11 ± 3.86,*** % | 127 ± 16,****
10 | N20: SEQ ID NO: 1 with addition of one amino acid at the amino terminal and deletion of position 18 (RYRVRFLAKENVTQDAED) | 273 ± 12,**** | 24.03 ± 8.61,* % | 244 ± 23,* | 242 ± 22,**** | 7.67 ± 1.35,** % | 41.56 ± 6.68,* % | 6.92 ± 3.28,*** % | 299 ± 35,****
11 | N35: SEQ ID NO: 1 with A15R, addition of one amino acid and PEG modification at the carboxyl terminal (YRVRFLAKENVTQDREDNC-{PEG}; reading uncertain) | 358 ± 23,*** | 8.04 ± 2.90,*** % | 151 ± 10,*** | 338 ± 43,*** | 8.46 ± 2.77,*** % | 36.83 ± 5.92,** % | 6.07 ± 2.30,*** % | 315 ± 36,***
12 | N22: SEQ ID NO: 1 with substitution A7R, deletion of three amino acids at the amino terminal and of positions 15-18 (RFLRKENVTQD) | 220 ± 65,**** | 42.34 ± 4.98,* % | 200 ± 18,*** | 430 ± 51,** | 8.54 ± 1.57,** % | 11.44 ± 8.52,*** % | 10.02 ± 2.35,*** % | 42 ± 17,****
